Test results: patent US20070161578A1, “Treatment of nonalcoholic fatty liver disease using cholesterol lowering agents and/or H3 receptor antagonist/inverse agonist” (priority 2005, published 2007)

How the values were obtained:
DIO mice = test: DIO C57BL/6J mice on high fat/cholesterol diet, 4 weeks ezetimibe in diet (Example 3); type: in vivo; design: liver to body weight ratio (FIG. 6), top dose group: dose or concentration left out as unconfirmed
Text: C57BL/6J mice were fed a high fat/cholesterol diet (Research Diets, with 45% Kcal fat and 0.12% w/w cholesterol) for 7 months after weaning.

Niemann-Pick type C mice = details: ezetimibe treatment; cited from earlier work
[1] = test system: Diet-induced obese (DIO) mice; test: Diet-induced obese (DIO) mice with hepatic steatosis, four weeks treatment (first example); type: in vivo; details: ezetimibe 5 mg/kg/day, formula XIIIA 12 mg/kg/day, or both
Description: The mice were sacrificed and the liver weight, liver triglyceride level and liver free cholesterol content were determined for each group were determined and summarized in FIGS. 1 to 4.

[2] = test system: Diet induced obese (DIO) mice; test: DIO mice with hepatic steatosis and fibrosis, plasma ALT after four weeks treatment (Example 2); type: in vivo; details: formula XIIID 9 mg/kg/day, alone or with ezetimibe 2 mg/kg/day
Description: Diet induced obese (DIO) mice, which had developed obesity, dyslipidemia, hepatic steatosis and fibrosis by feeding them a western diet containing 45% fat and 0.12% cholesterol for seven months, were divided into four groups and treated with nothing (control), ezetimibe (formula II) (2 mg/kg/day), the compound of formula XIIID (9 mg/kg/day) or a combination of ezetimibe (2 mg/kg/day) and compound of formula XIIID (9 mg/kg/day) for four weeks. The mice were sacrificed and the plasma alanine aminotransferase (ALT) enzyme activities, a plasma biomarker of liver injury with steatohepatitis, were determined for each group, this is summarized in FIG. 5.

[3] = after 4 weeks of ezetimibe treatment
[4] = after 4 weeks, ezetimibe-treated DIO mice compared to the control
[5] = after 4 weeks, livers from ezetimibe-treated mice
[6] = ezetimibe 1.6 and 5.3 mg/kg/day, compared to the control group

Which HDL-C (DIO mice; [3]) does the source give for O=C1[C@H](CC[C@H](O)c2ccc(F)cc2)[C@@H](c2ccc(O)cc2)N1c1ccc(F)cc1 [ezetimibe] here?
Its HDL-C is “not changed”.

And the LDL-C (DIO mice; [3])?
Its LDL-C is “significant decreases”.

What about the VLDL-C (DIO mice; [3]) of the same compound?
Its VLDL-C is “significant decreases”.

What about the “reduction of plasma triglyceride” value (DIO mice; [3]) of the same compound?
Its value is 15%.

And the “reduction of total plasma cholesterol” value (DIO mice; [3])?
Its value is 30%.

And the “liver to body weight ratio” value (DIO mice; [4])?
Its value is “significantly reduced”.

And the liver wet weight (DIO mice; [4])?
The liver wet weight was “significantly reduced”.

And the liver cholesteryl esters (DIO mice; [5])?
Its liver cholesteryl esters is “significantly lower”.

And the liver free cholesterol (DIO mice; [5])?
The liver free cholesterol was “significantly lower”.

What about the liver triglyceride (DIO mice; [5]) of the same compound?
Its liver triglyceride is “significantly lower”.

And the “liver triglyceride levels (FIG. 7), across doses” value (DIO mice; all groups that received ezetimibe, 4 weeks)?
The value was “dose-dependent decrease in liver triglyceride levels”.

What about the “liver to body weight ratio (FIG. 6), across doses” value (DIO mice; ezetimibe 0.5, 1.6 and 5.3 mg/kg/day, 4 weeks) of the same compound?
Its value is “dose-dependent decrease in liver to body weight ratio”.

What about the “liver cholesterol content (FIG. 9)” value (DIO mice; [6]) of the same compound?
Its value is “significant decrease in liver cholesterol content”.

What about the “liver cholesteryl ester content (FIG. 8)” value (DIO mice; [6]) of the same compound?
The value was “significant decrease in liver cholesteryl ester content”.

And the “liver to body weight ratio (FIG. 6), top dose group” value (DIO mice; ezetimibe, 4 weeks)?
The value was “greatest decline in liver to body weight ratio”.

And the VLDL-TG production rates (DIO mice; ezetimibe-treated vs control DIO mice)?
The VLDL-TG production rates was “comparable”.

And the hepatic cholesterol accumulation (Niemann-Pick type C mice)?
The hepatic cholesterol accumulation was “reduced hepatic cholesterol accumulation”.

What about the histological abnormalities (Niemann-Pick type C mice) of the same compound?
Its histological abnormalities is “improved histological abnormalities”.

What about the liver enzymes (Niemann-Pick type C mice) of the same compound?
Its liver enzymes is “improved”.

What about the “effect in treating NAFLD (conclusion from FIGS. 1 to 4)” value [1] of the same compound?
Its value is “effective in treating NAFLD”.

And the “liver cholesteryl ester content (FIG. 3)” value ([1]; vs control)?
Its value is “decrease in liver cholesteryl ester content”.

What about the “liver free cholesterol content (FIG. 4)” value ([1]; vs control) of the same compound?
The value was “decrease in liver cholesterol content”.

What about the “liver triglyceride levels (FIG. 2)” value ([1]; vs control) of the same compound?
The value was “decrease in liver triglyceride levels”.

What about the “liver weight (liver to body weight ratio, FIG. 1)” value ([1]; vs control) of the same compound?
Its value is “decrease in liver weight”.

With CO/N=C(/c1ccccn1)C1CCN(C(=O)C2(F)CCN(Cc3ccnc(N)c3)CC2)CC1 [formula XIIID] as the compound, how does the “plasma alanine aminotransferase (ALT) enzyme activities (FIG. 5)” value [2] read?
Its value is “decrease in plasma ALT”.
